“Also recorded” adds a separate entry of the source.
Experiments:
NZB/W F1 female mice = assay: Lupus nephrosis mouse model (proteinuria analysis); type: in vivo; conditions: 25 mg/Kg IP three times per week for 8 weeks, from 25-week age
Procedure: FIGS. 17A-17B. Lupus Nephrosis Mouse Model: APT2 inhibitor ML349 decreases protein concentration in the mouse urine. (A) Protein concentration in urine (all data points), (B) Protein concentration in urine (averaged, with error bars). NZB/W F1 female mice at 25-week were administered via IP injection with either vehicle solution (DMSO+PBS) or APT2 inhibitor ML349 at 25 mg/Kg three times per week for 8 weeks. After 4 weeks of treatment, mice were evaluated for lupus incidence weekly through proteinuria analysis by collecting the urines and measuring the protein concentrations in the urine.
NZB/W F1 female mice at 25-week were administered via IP injection with either vehicle solution (DMSO+PBS) or APT2 inhibitor ML349 at 25 mg/Kg three times per week for 8 weeks. After 4 weeks of treatment, mice were evaluated for lupus incidence weekly through proteinuria analysis by collecting the urines and measuring the protein concentrations in the urine. […] This was the first time that the inventors did this experiment and after the experiment began, the inventors noticed that at 25 weeks, the disease phenotype was already very severe. It is expected that if the ML349 treatment is begun earlier, the effect might be more obvious and significant.

[1] = test system: TH17 cell differentiation; assay: TH17 cell differentiation of mouse splenocytes by flow cytometry (CD4- and IL-17-positive cells); type: cell-based; conditions: cytokine cocktail and different concentrations of ML349 for 4 days
Procedure: FIGS. 3A-3E. The STAT3 palmitoylation-depalmitoylation cycle promotes TH17 cell differentiation. (A) DHHC7 promotes phosphorylation of wild-type STAT3, but not of the C108S mutant, in mouse splenocytes. Left, STAT3 and p-STAT3 blots; right, quantification of the relative p-STAT3 levels. (B) TH17 cell differentiation was quantified in the splenocyte samples in A by flow cytometry. […] Mouse splenocytes were treated with a cytokine cocktail (3 ng ml^−1 TGF-β, 40 ng ml^−1 IL-6, 30 ng ml^−1 IL-23, 20 ng ml^−1 TNF and 10 ng ml^−1 IL-1β) and different concentrations of ML349 for 4 days, then collected and analysed by flow cytometry to detect CD4- and IL-17-positive cells. (D) DHHC7 knockout in splenocytes inhibits TH17 cell differentiation. Wild-type and DHHC7-knockout mouse splenocytes were treated with a cytokine cocktail for 4 days to initiate differentiation, then the cells were collected and analyse by flow cytometry to detect CD4- and IL-17-positive cells. (E) Left, STAT3 and p-STAT3 blots of wild-type and DHHC7-knockout splenocytes. Right, quantification of the relative p-STAT3 levels. Data are mean±s.e.m. **P<0.01.
Splenocytes were isolated from mice by classic methods. […]
For FACS analysis, flow cytometry was performed using 1×10^6 cells per sample. […] The cells were detected by Attune Flow Cytometer (Thermo Fisher) and analysed with FCS Express 6 software (De Novo Software).

SMILES: COc1ccc(N2CCN(C(=O)c3cc4c(s3)-c3ccccc3S(=O)(=O)C4)CC2)cc1 [ML349]
- protein concentrations in the urine (NZB/W F1 female mice): decrease
- differentiation of TH17 cells [1]: significantly decreased; also recorded: decreases TH17 cell differentiation in a dose-dependent manner
